From paper PMC8129715 (CPT: Pharmacometrics & Systems Pharmacology, 2021)
Read-outs that look alike come from different tables or passages of the source.

What was measured:
[1] = pKa by capillary electrophoresis method; type: physicochemical
[2] = In vitro plasma protein binding; type: in vitro ADME, human; conditions: unpublished data reported by Eisai Inc.
[3] = Human blood to plasma concentration ratio; type: in vitro ADME
CYP3A4 [4] = target: CYP3A4 (Homo sapiens, UniProt P08684); assay: Metabolism by recombinant human CYP isoforms; type: in vitro ADME; conditions: 37°C for 20 min; unpublished data reported by Eisai Inc.
Chain of CYP3A4 (Homo sapiens, UniProt P08684) (P08684 whole entry, canonical isoform): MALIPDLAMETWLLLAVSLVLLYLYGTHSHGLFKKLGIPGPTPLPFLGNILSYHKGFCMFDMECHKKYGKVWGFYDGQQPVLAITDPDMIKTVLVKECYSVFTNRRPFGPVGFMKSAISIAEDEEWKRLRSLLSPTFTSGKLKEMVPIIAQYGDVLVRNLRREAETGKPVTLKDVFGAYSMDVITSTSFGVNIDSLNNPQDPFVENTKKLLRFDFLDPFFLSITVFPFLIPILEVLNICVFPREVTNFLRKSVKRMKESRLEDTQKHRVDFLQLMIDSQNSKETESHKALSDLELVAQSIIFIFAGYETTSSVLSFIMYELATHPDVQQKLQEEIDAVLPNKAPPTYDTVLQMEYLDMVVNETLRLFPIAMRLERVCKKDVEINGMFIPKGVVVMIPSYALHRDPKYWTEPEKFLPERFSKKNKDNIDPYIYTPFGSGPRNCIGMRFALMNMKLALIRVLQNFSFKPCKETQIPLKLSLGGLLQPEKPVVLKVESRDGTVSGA

[5] = system: other CYP isoforms (1A2, 2A6, 2B6, 2C8, 2C9, 2C19, 2D6, 2E1, 2J2, 3A5, 4F12); assay: Metabolism by recombinant human CYP isoforms; type: in vitro ADME; conditions: 37°C for 20 min; unpublished data reported by Eisai Inc.
[6] = system: cryopreserved human hepatocytes; assay: Metabolism in cryopreserved human hepatocytes with CYP inhibitors; type: in vitro ADME; conditions: 1-aminobenzotriazole, troleandomycin and ketoconazole
[7] = Biliary excretion in rats; type: in vivo
CYP3A [8] = assay: In vitro time-dependent inhibition; type: in vitro ADME; conditions: unpublished data reported by Eisai Inc.
CYP3A4 [9] = assay: In vitro induction; type: in vitro ADME; conditions: unpublished data reported by Eisai Inc.
CYP2B6 [10] = assay: In vitro induction; type: in vitro ADME; conditions: unpublished data reported by Eisai Inc.
[11] = PBPK simulation of lemborexant PK in healthy individuals; parameters: species or system human
[12] = cited from earlier work
[13] = human mass-balance study, cited from earlier work
P-glycoprotein = conditions: in vitro; cited from earlier work
[14] = system: breast cancer resistance protein; conditions: in vitro; cited from earlier work
CYP2B6 [15] = conditions: lemborexant 10 mg q.d. for 13 days, bupropion 75 mg on day 10, healthy adults; cited from earlier work
[16] = capsule, cited from earlier work; for Observed AUC(0-t) / Observed Cmax: geometric mean; for Observed Cmax: healthy individuals
[17] = multiple 10 mg oral doses, capsule, cited from earlier work
[18] = single 10 mg oral dose, IR tablet, DDI study, cited from earlier work
[19] = single 10 mg oral dose, IR tablet, ref study E2006-A001-008 (NCT02089412), cited from earlier work; for Observed Cmax: geometric mean
CYP3A [20] = conditions: cited from earlier work
[21] = cited from earlier work; remark: listed apart in the source
[22] = multiple 10 mg oral doses, day 1
[23] = multiple 10 mg oral doses, day 14
[24] = single 10 mg oral dose, IR tablet, fasted, food effect study
[25] = single 10 mg oral dose, IR tablet, fed
[26] = single 10 mg oral dose, solution vs capsule
[27] = single 100 mg oral dose, solution vs capsule
[28] = co-administration with rifampicin 600 mg q.d.
[29] = lemborexant 10 mg with fluconazole 200 mg q.d.

Cc1ncc(OC[C@@]2(c3cccc(F)c3)C[C@H]2C(=O)Nc2ccc(F)cn2)c(C)n1 [lemborexant]
pKa [1]: < 3.5
Main binding protein in plasma [2]: human serum albumin, low‐density lipoprotein, and high‐density lipoprotein
blood plasma ratio ([3]; B:P (blood-to-plasma partition ratio), mean, mean value from unpublished data reported by Eisai Inc.): 0.636
blood plasma ratio ([3]; human blood to plasma concentration ratio (B:P), concentration range 100–1000 ng/ml, unpublished data reported by Eisai Inc.): 0.61 to 0.656
residual ratio after incubation with recombinant CYP3A4 (CYP3A4 [4]): 30%
residual ratio after incubation with other recombinant CYP isoforms [5]: ≥ 81%
lemborexant metabolism in human hepatocytes in presence of CYP inhibitors [6]: completely inhibited
biliary excretion of lemborexant [7]: no biliary excretion
time-dependent inhibition on CYP3A (CYP3A [8]): weak
inductive effect on CYP3A4 (CYP3A4 [9]): weak
inductive effect on CYP2B6 (CYP2B6 [10]): weak
fold difference (predicted/observed) of Cmax ratio for fasted and fed conditions ([11]; food effect study 008, 10 mg IR tablet): 0.768
Fold difference, predicted/observed, AUC(0-t) [11, 22]: 0.92
Fold difference, predicted/observed, Cmax [11, 22]: 0.86
Fold difference, predicted/observed, AUC(0-t) [11, 23]: 1.02
Fold difference, predicted/observed, Cmax [11, 23]: 0.73
Fold difference, predicted/observed, AUC(0-t) ([11]; single 2.5 mg oral dose, solution vs capsule): 0.89
Fold difference, predicted/observed, AUC(0-t) ([11]; single 10 mg oral dose, IR tablet): 0.80
Fold difference, predicted/observed, AUC(0-t) [11, 24]: 0.85
Fold difference, predicted/observed, Cmax [11, 24]: 0.45
Fold difference, predicted/observed, AUC(0-t) [11, 25]: 0.71
Fold difference, predicted/observed, Cmax [11, 25]: 0.34
Fold difference, predicted/observed, AUC(0-t) [11, 26]: 1.29
Fold difference, predicted/observed, Cmax [11, 26]: 0.85
Fold difference, predicted/observed, AUC(0-t) [11, 27]: 0.76
Fold difference, predicted/observed, Cmax [11, 27]: 1.08
in vitro plasma protein binding (bound) ([12]; human plasma, 100–1000 ng/ml, no concentration dependency): 87.4–88.7%
Fu (fraction unbound in plasma) ([12]; mean value based on lemborexant 100 ng/ml): 0.113
CL/F (apparent oral clearance) ([13]; 10 mg capsule): 32.8 L/h
unchanged lemborexant in feces ([13]; [14C]lemborexant 10 mg): 13.0 % of dose
unchanged lemborexant in urine ([13]; [14C]lemborexant 10 mg): not detected
transport of lemborexant via P-glycoprotein (P-glycoprotein): negligible
transport of lemborexant via breast cancer resistance protein [14]: negligible
decrease in plasma exposures of S-bupropion (CYP2B6 [15]): 45.5%
Observed AUC(0-t) ([16]; single 2.5 mg oral dose): 74.4 ng·h/mL
Observed Cmax ([16]; single 2.5 mg oral dose): 14.9 ng/mL
Observed AUC(0-t) ([16]; single 10 mg oral dose): 274 ng·h/mL
Observed Cmax ([16]; single 10 mg oral dose): 32.0 ng/mL
Observed Tmax ([16]; single 10 mg oral dose, median): 1.00 h
Observed AUC(0-t) ([16]; single 100 mg oral dose): 4,300 ng∙h/ml
Observed Cmax ([16]; single 100 mg oral dose): 242 ng/mL
Observed AUC(0-t) ([17]; day 1, geometric mean): 182 ng·h/mL
Observed Cmax ([17]; day 1, geometric mean): 28.0 ng/mL
Observed Tmax ([17]; day 1, median): 3.25 h
Observed AUC(0-t) ([17]; day 14, geometric mean): 321 ng·h/mL
Observed Cmax ([17]; day 14, geometric mean): 44.8 ng/mL
Observed Tmax ([17]; day 14, median): 1.75 h
Observed AUC(0-t) ([18]; geometric mean): 411 ng·h/mL
Observed Tmax ([18]; median): 1.00 h
Observed Cmax ([18]; healthy individuals, geometric mean): 54.3 ng/mL
Observed Cmax ([19]; fasted, food effect study): 57.1 ng/mL
Observed Tmax ([19]; fasted, food effect study, median): 1.00 h
Observed Cmax ([19]; fed (standard high-fat meal)): 44.1 ng/mL
increase in AUCR with strong and moderate CYP3A inhibitors (CYP3A [20]; co-administered with itraconazole and fluconazole): ≤ 3.8 fold
reduction of lemborexant AUC(0-inf) (CYP3A [20]; [28]): 97%
reduction of lemborexant Cmax (CYP3A [20]; [28]): 92%
increase in lemborexant AUC(0-t) (CYP3A [20]; [29]): 3.8 fold
increase in lemborexant Cmax (CYP3A [20]; [29]): 1.6 fold
increase in lemborexant Cmax (CYP3A [20]; lemborexant 10 mg with itraconazole 200 mg q.d.): 1.36 fold
clinical efficacy (sleep) ([21]; doses of 5 mg and above): clinically meaningful sleep benefits
somnolence adverse events ([21]; lemborexant exposures greater than 10 mg): increased risk of somnolence adverse events
